Measured values: patent publication US6492342B1, “Hygromycin A prodrugs” (Pfizer Inc., priority 1999, dated 2002)

Test system: panel of bacterial strains
Experiment: Microtiter tray MIC assay against a panel of bacterial strains (NCCLS)
Assay type: cell-based
Conditions: microtiter trays, compounds dissolved in DMSO
From the text: The assay, described below, employs conventional methodology and interpretation criteria and is designed to provide direction for chemical modifications that may lead to compounds with antibacterial activity against susceptible and drug-resistant organisms including, but not limited to, beta-lactam, macrolide and vancomycin resistance. In the assay, a panel of bacterial strains is assembled to include a variety of target pathogenic species, including representatives of antibiotic resistant bacteria. Use of this panel enables the chemical structure/activity relationship to be determined with respect to potency and spectrum of activity. The assay is performed in microtiter trays and interpreted according to Performance Standards for Antimicrobial Disk SusceDtibility Tests—Sixth Edition; Approved Standard, published by The National Committee for Clinical Laboratory Standards (NCCLS) guidelines; the minimum inhibitory concentration (MIC) is used to compare strains. Compounds are initially dissolved in dimethylsulfoxide (DMSO) as stock solutions.

CC(=Cc1ccc(OC2OC(/C(C)=N/OCc3cccc(Cl)c3)C(O)C2O)c(OC(=O)C(C)(C)C)c1)C(=O)NC1C(O)C(O)C2OCOC2C1O (stereo not shown) [Example 1]
antibacterial activity in the microtiter assay (MIC): exhibits antibacterial activity
